Test results as given in patent publication US20250215029A1 (Recludix Pharma, Inc., priority 2022, published 2025).
pIC50: −log10 of the molar value.

Key:
[1] = biological target: T1, Recombinant STAT3 protein (STAT3 (G127-I722)) (Homo sapiens, UniProt P40763); test: STAT3 Fluorescence Polarization (FP) Assay; format: binding; conditions: STAT3 (G127-I722) 25 nM, probe 5-FAM-GpYLPQTV-NH2 2 nM, 45-minute incubation; read-out: STAT3 (FP assay IC50 class)
T1 construct: Recombinant STAT3 protein (STAT3 (G127-I722))
Procedure, shortened: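 In this competition FP format, STAT3 residues G127-I722 (25 nM) and 2 nM 5-FAM-GpYLPQTV-NH2 met test compounds for 45 min at room temperature. IC50 values result from fitting mP signal against log concentration by nonlinear regression.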

[2] = biological target: T2, Recombinant STAT6 protein (STAT6 (W123-T658)) (Homo sapiens, UniProt P42226); test: STAT6 Fluorescence Polarization (FP) Assay; format: binding; conditions: STAT6 (W123-T658) 250 nM, probe 5-FAM-Ap[…]-NH2 2 nM, 45-minute incubation; read-out: STAT6 (FP assay IC50 class)
T2 construct: Recombinant STAT6 protein (STAT6 (W123-T658))
T2 sequence (P42226 123-658): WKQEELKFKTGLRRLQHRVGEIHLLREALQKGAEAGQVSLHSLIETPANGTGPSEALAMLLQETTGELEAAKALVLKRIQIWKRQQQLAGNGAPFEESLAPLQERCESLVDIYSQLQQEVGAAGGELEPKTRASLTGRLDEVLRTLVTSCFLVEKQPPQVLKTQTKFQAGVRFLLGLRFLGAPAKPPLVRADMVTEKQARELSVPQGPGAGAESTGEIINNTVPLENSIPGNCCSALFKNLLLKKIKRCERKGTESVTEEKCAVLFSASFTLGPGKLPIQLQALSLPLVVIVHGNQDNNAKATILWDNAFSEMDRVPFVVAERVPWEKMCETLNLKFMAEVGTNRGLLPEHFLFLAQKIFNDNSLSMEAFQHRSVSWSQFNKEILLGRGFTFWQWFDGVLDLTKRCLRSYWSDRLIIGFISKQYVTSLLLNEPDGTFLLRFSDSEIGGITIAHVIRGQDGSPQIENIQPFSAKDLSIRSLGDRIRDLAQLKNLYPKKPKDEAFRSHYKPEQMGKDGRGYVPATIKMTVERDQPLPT
Procedure, shortened: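 Competitive FP binding: recombinant STAT6 (W123-T658) at 250 nM, labeled phosphotyrosine peptide at 2 nM, compounds at 1% DMSO, 45 min at RT before reading. IC50 values were obtained from nonlinear regression of mP versus log concentration.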

T1 sequence (P40763 127-722): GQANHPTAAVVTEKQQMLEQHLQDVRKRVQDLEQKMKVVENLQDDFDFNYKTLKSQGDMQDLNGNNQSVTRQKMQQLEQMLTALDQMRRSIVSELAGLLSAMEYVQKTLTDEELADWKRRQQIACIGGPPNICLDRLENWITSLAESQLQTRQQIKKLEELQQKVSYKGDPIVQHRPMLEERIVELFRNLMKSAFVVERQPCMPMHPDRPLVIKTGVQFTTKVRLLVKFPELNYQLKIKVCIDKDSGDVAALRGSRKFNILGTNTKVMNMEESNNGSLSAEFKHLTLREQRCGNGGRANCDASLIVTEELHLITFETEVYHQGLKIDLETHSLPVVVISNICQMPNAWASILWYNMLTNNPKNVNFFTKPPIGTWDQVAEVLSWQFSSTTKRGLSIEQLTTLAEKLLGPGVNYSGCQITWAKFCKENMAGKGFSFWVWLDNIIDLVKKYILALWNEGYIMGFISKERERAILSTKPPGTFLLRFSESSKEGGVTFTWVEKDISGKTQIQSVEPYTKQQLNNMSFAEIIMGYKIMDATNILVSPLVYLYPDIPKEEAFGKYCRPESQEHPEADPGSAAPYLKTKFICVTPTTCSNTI

Structure (SMILES)	pIC50 [1]	pIC50 [2]
Cc1cc(C#N)cnc1C1CN(C(=O)[C@@H]2CC[C@@H]3CCCC[C@H](NC(=O)c4cc5cc(C(F)(F)P(=O)(O)O)ccc5s4)C(=O)N32)C1 [Compound 496, ((2-(((3S,6S,10aS)-3-(3-(5-cyano-3-methylpyridin-2-yl)azetidine-1-carbonyl)-5-oxodecahydropyrrolo[1,2-a]azocin-6-yl)carbamoyl)benzo[b]thiophen-5-yl)difluoromethyl)phosphonic acid]	> 7.00	5.52 to 6.52
O=C(N[C@H]1CCCC[C@H]2CC[C@@H](C(=O)N3CC(c4nc5ccccc5o4)C3)N2C1=O)c1cc2cc(C(F)(F)P(=O)(O)O)ccc2s1 [Compound 497, ((2-(((3S,6S,10aS)-3-(3-(benzo[d]oxazol-2-yl)azetidine-1-carbonyl)-5-oxodecahydropyrrolo[1,2-a]azocin-6-yl)carbamoyl)benzo[b]thiophen-5-yl)difluoromethyl)phosphonic acid]	6.00 to 7.00	5.52 to 6.52
COC1(c2cccnc2)CN(C(=O)[C@@H]2CC[C@@H]3CCC[C@H](NC(=O)c4cc5cc(C(F)(F)P(=O)(O)O)ccc5s4)C(=O)N32)C1 [Compound 498, (difluoro(2-(((3S,6S,9aS)-3-(3-methoxy-3-(pyridin-3-yl)azetidine-1-carbonyl)-5-oxooctahydro-1H-pyrrolo[1,2-a]azepin-6-yl)carbamoyl)benzo[b]thiophen-5-yl)methyl)phosphonic acid]	> 7.00	5.52 to 6.52
Cc1ccncc1C1CN(C(=O)[C@@H]2CC[C@@H]3CCCC[C@H](NC(=O)c4cc5cc(C(F)(F)P(=O)(O)O)ccc5s4)C(=O)N32)C1 [Compound 499, (difluoro(2-(((3S,6S,10aS)-3-(3-(4-methylpyridin-3-yl)azetidine-1-carbonyl)-5-oxodecahydropyrrolo[1,2-a]azocin-6-yl)carbamoyl)benzo[b]thiophen-5-yl)methyl)phosphonic acid]	> 7.00	5.52 to 6.52
Cc1ccncc1C1CN(C(=O)[C@@H]2CC[C@@H]3CC(C)C[C@H](NC(=O)c4cc5cc(CP(=O)(O)O)ccc5s4)C(=O)N32)C1 (stereo partly drawn) [Compound 500, ((2-(((3S,6S,9aR)-8-methyl-3-(3-(4-methylpyridin-3-yl)azetidine-1-carbonyl)-5-oxooctahydro-1H-pyrrolo[1,2-a]azepin-6-yl)carbamoyl)benzo[b]thiophen-5-yl)methyl)phosphonic acid]	6.00 to 7.00	4.52 to 5.52
COC1(c2cnccc2C)CN(C(=O)[C@@H]2CC[C@@H]3CCCC[C@H](NC(=O)c4cc5cc(C(F)(F)P(=O)(O)O)ccc5s4)C(=O)N32)C1 [Compound 501, (difluoro(2-(((3S,6S,10aS)-3-(3-methoxy-3-(4-methylpyridin-3-yl)azetidine-1-carbonyl)-5-oxodecahydropyrrolo[1,2-a]azocin-6-yl)carbamoyl)benzo[b]thiophen-5-yl)methyl)phosphonic acid]	6.00 to 7.00	4.52 to 5.52
COc1ccncc1C1CN(C(=O)[C@@H]2CC[C@@H]3CCC[C@H](NC(=O)c4cc5cc(CP(=O)(O)O)ccc5s4)C(=O)N32)C1 [Compound 502, ((2-(((3S,6S,9aS)-3-(3-(4-methoxypyridin-3-yl)azetidine-1-carbonyl)-5-oxooctahydro-1H-pyrrolo[1,2-a]azepin-6-yl)carbamoyl)benzo[b]thiophen-5-yl)methyl)phosphonic acid]	6.00 to 7.00	4.52 to 5.52
CCc1ccncc1C1CN(C(=O)[C@@H]2CC[C@@H]3CCC[C@H](NC(=O)c4cc5cc(CP(=O)(O)O)ccc5s4)C(=O)N32)C1 [Compound 503, ((2-(((3S,6S,9aS)-3-(3-(4-ethylpyridin-3-yl)azetidine-1-carbonyl)-5-oxooctahydro-1H-pyrrolo[1,2-a]azepin-6-yl)carbamoyl)benzo[b]thiophen-5-yl)methyl)phosphonic acid]	6.00 to 7.00	4.52 to 5.52
